{
  "source": "patent US8986733B2",
  "about": "“Materials and methods for nerve repair” (University of Florida Research Foundation, Inc., priority 2001, dated 2015)",
  "key": {"rat sciatic nerve": {"tested_on": "rat sciatic nerve", "assay": "Bilateral sciatic nerve transection (neurotmesis) and neurorrhaphic repair, GAP-43 axon scoring", "assay_type": "in vivo", "details": "for axon regeneration / ingress into the distal segment vs vehicle-treated controls: 4 days after transection and repair", "method": "Surgical procedures for nerve transection and nerve crush experiments. All surgical procedures were performed according to Institutional Animal Care and Use Committee (IACUC) approved protocols. Young adult SPRAGUE DAWLEY rats (HARLAN Indianapolis, Ind.) were deeply anesthetized with xylazine (15 mg/kg, i.m.) followed by ketamine-HCl (110 mg/kg, i.p.). Six animals received bilateral nerve crush injuries. Sciatic nerves were exposed and then crushed with firm pressure for thirty seconds with a DUMONT #5 forceps at a site 4 mm distal to the tendon of the internal obdurator. The crush site was marked with an epineurial suture. In a separate set of experiments, eight rats received bilateral sciatic nerve transection injuries using serrated scissors. The proximal and distal stumps were […] by epineurial neurorrhaphy using 9-0 ETHILON sutures. Fibrin glue (fibrinogen and thrombin) was then applied to stabilize the union. In both injury models, the right sciatic nerves were injected 2-mm distal to the injury with chondroitinase ABC (1 U in 2 μl) (high-purity, protease-free; SIGMA CHEMICAL CO., St. Louis, […].). Left sciatic nerves (with the same injury as the right side) were injected with vehicle alone (0.1% bovine serum albumin in PBS). Muscle incisions were sutured and the skin closed with metal clips. After recovery from the anesthetic, animals were returned to standard housing. Two days (for crush injury) and four days (for transection injury) after surgery, nerves were removed under anesthesia and fixed as described below. One of the eight animals receiving nerve transection and repair was excluded because loss of continuity in one nerve occurred during convalescence.\nThe hypothesis that chondroitinase treatment improves axonal growth through the site of nerve coaptation was tested. Bilateral neurotmesis was achieved by a scissor cut of the sciatic nerves which were then repaired by epineurial suture and fibrin glue. One nerve was injected with chondroitinase ABC and the contralateral nerve received vehicle alone. Because of the latency of regeneration after nerve transection, axonal growth across the coaptation was examined four days after injury. In control nerves, the ingress of axons occurred mainly in patches and was limited to discrete subsections of the distal nerve; otherwise only a few axons were found scattered throughout the remaining nerve cross-section, as shown in FIG. 14A. The number of axons extending farther into the distal (after 4 days) rapidly diminished and approached zero within 3 mm from the coaptation. In contrast, axon ingress into chondroitinase-treated nerves was more robust and widespread throughout the entire nerve cross-section. In 7/7 animals, the number of axons that entered the distal nerve was greater in the chondroitinase-treated nerve than in the control nerve. […] It was clear that axon growth in all portions of the distal nerve was strictly linear and aligned with the longitudinal axis of the nerve."}, "[1]": {"tested_on": "embryonic chick DRG neurons", "assay": "Cryoculture bioassay on sections of acellular rat nerve segments", "assay_type": "cell-based", "method": "(§1) Cryoculture bioassay. Cryoculture is a neurite outgrowth assay in which neurons are cultured directly on fresh/frozen nerve sections and was performed as described previously (Ferguson T A et al. [2000] Mol Cell Neurosci, 16:157-167). Briefly, chondroitinase- and vehicle-treated nerve segments were sectioned at 20 μm, mounted on sterile, aminopropyltriethoxysilane (APTS)-coated coverslips and stored at −20° C. until used. Where indicated, sections were treated with chondroitinase ABC (0.1 unit/ml) or vehicle (50 mM Tris-HCl, pH 8.0), containing 50 mM NaCl) for 2 h at 37° C. Purified dorsal root ganglionic (DRG) neurons from day 8 chick embryos were seeded directly on the nerve sections in a defined N2 medium (Bottenstein J E et al. [1980] Exp Cell Res 125:183-190) containing 10 ng/ml nerve growth factor. […] Neurite lengths were measured directly using IMAGE-PRO PLUS software (MEDIA CYBERNETICS, Silver Springs, Md.). At least 250 neurons with neurites greater than one cell body (˜15 μm) were scored for each condition in each experiment.\nInactivation of inhibitory CSPG in chondroitinase-treated acellular nerve was determined by cryoculture bioassay. Embryonic chick DRG neurons were seeded onto sections of prepared nerve segments and the neurite-promoting activity was assessed by scoring neurite growth. […]"}, "chick DRG neurons": {"tested_on": "chick DRG neurons", "assay": "Cryoculture assay using human nerve segments", "assay_type": "cell-based", "details": "DRG neurons 24 h on treated human nerve sections", "method": "Human nerves were treated with chondroitinase and then assayed for neurite-promoting activity. Dissociated chick DRG neurons were grown on the sections for 24 h and neurite lengths were scored. Results are expressed as means (−SEM). Statistical significance (P<0.001) comparing vehicle-treated and chondroitinase-treated conditions was found using Student's t test.\nas §1, with “C.” for “C. Purified dorsal root ganglionic (DRG) neurons from day 8 chick embryos were seeded directly on the nerve sections in a defined N2 medium (Bottenstein J E et al. [1980] Exp Cell Res 125:183-190) containing 10 ng/ml nerve growth factor.”, “experiment. […]” for “experiment.”"}},
  "data": [
    {"substance": "chondroitinase ABC", "values": [
      {"measurement": "animals in which number of axons entering distal nerve was greater than in control nerve", "setting": "rat sciatic nerve; 4 days after injury", "value": "7/7"},
      {"measurement": "increase in axon score immediately distal to coaptation in 3/7 animals", "setting": "rat sciatic nerve; 4 days after injury, 3/7 animals", "value": "greater than 3.5 fold"},
      {"measurement": "score of axons immediately distal to the coaptation vs control", "setting": "rat sciatic nerve; 4 days after injury, average", "value": "two-fold greater"},
      {"measurement": "axon regeneration / ingress into the distal segment vs vehicle-treated controls", "setting": "rat sciatic nerve", "value": "significantly greater"},
      {"measurement": "axon regeneration / ingress into the distal segment vs vehicle-treated controls", "setting": "rat sciatic nerve; listed as chondroitinase", "value": "increased several-fold"},
      {"measurement": "effect of post-treatment on neurite-promoting activity", "setting": "[1]; sections from en bloc chondroitinase-treated nerve grafts", "value": "only a slight additive effect"},
      {"measurement": "increase in neurite-promoting activity by post-treatment of sections", "setting": "[1]; sections of acellular nerve treated en bloc with vehicle only, post-treated after sectioning", "value": 86, "unit": "%"},
      {"measurement": "growth-promoting properties of human nerves (neurite length)", "setting": "chick DRG neurons", "value": "increased"}
    ]}
  ]
}
